For the assay, the system named is female NMRI mice. The assay is described as follows: Anorectic effect: cumulative condensed milk consumption of treated compared with control animals. In kind it is in vivo. The note with it: oral dose 50 mg/kg by gavage, female NMRI mice after withdrawal of food for 24 hours; for Reduction in the cumulative milk consumption as % of the control: compared with vehicle-treated control animals; for cumulative milk consumption of the treated animals: condensed milk offered 30 minutes after administration, consumption determined for 7 hours. Here is the method:
The anorectic effect was tested on female NMRI mice. After withdrawal of food for 24 hours, the test product was administered by gavage. The animals were housed singly with free access to drinking water and were offered condensed milk 30 minutes after administration of the product. The condensed milk consumption was determined every half hour for 7 hours, and the general wellbeing of the animals was observed. The measured milk consumption was compared with the vehicle-treated control animals.

For `CC(C)N1CC2N(C(=O)C(N(C)C)CN2S(=O)(=O)c2ccc(Cl)cc2Cl)C(Cc2ccc(Cl)cc2)C1=O` (stereo not shown) [Example 5, 6-(4-Chlorobenzyl)-1-(2,4-dichlorobenzenesulfonyl)-3-dimethylamino-8-isopropylhexahydropyrazino[1,2-a]pyrimidine-4,7-dione], the “Reduction in the cumulative milk consumption as % of the control” value is 31 % of the control and the “cumulative milk consumption of the treated animals” value is given as 5/2.4 ml.
With `CC(C)N1CC2N(C(=O)C(NS(C)(=O)=O)CN2S(=O)(=O)c2ccc(Cl)cc2Cl)C(Cc2ccc(Cl)cc2)C1=O` (stereo not shown) [Example 9, N-[6-(4-Chlorobenzyl)-1-(2,4-dichlorobenzenesulfonyl)-8-isopropyl-4,7-dioxooctahydropyrazino[1,2-a]pyrimidin-3-yl]methanesulfonamide], the “Reduction in the cumulative milk consumption as % of the control” value is recorded as 47 % of the control and the “cumulative milk consumption of the treated animals” value is on record as 5/2.06 ml.

These data come from patent US7652007B2, “Nitrogen-substituted hexahydropyrazino[1,2-A]pyrimidine-4,7-dione derivatives, processes for their preparation and their use as medicaments” (Sanofi-Aventis Deutschland GmbH, priority 2003, dated 2010).
